Patent publication US20220347175A1, “PYRIDAZINONE DERIVATIVE” (Sumitomo Dainippon Pharma Co., Ltd., priority 2018, published 2022)
Read-outs that look alike come from different tables or passages of the source. Blank lines part the entries; values can stand above or below the molecule they belong to.

Molecular target: T1, human Nav1.1 (Homo sapiens, UniProt P35498)
T1 construct: host or cells: HEK293
Assay: Amplification of Nav1.1-derived voltage-dependent sodium current (Nav1.1 current), cell line stably expressing human Nav1.1, automated patch clamp
Type: cell-based
Conditions: for activation at 1 µM / activation at 10 µM / activation at 50 µM: read-out: Nav1.1 current amplification rate (%)
Experimental: Test 1: Evaluation of the Amplification of Nav1.1-Derived Voltage-Dependent Sodium Current (Nav1.1 Current) by Using a Cell Line Stably Expressing Human Nav1.1
(1) Preparation of Test Compounds
Test compounds were prepared by dissolving in DMSO at 200 times of the concentration at evaluation, and diluting the obtained solution to twice the concentration of evaluation with an extracellular fluid (135 mmol/L NaCl, 4 mmol/L KCl, 1 mmol/L MgCl2, 5 mmol/L CaCl2, 5 mmol/L Glucose, 10 mmol/L HEPES).
(2) Induction and Measurement of Nav1.1 Current
A HEK293 cell line stably expressing human Nav1.1 (cat #CYL3009, Millipore, USA, Human Embryonic Kidney 293) was purchased, and used in the present test. Nav1.1 current was induced by stimulating Ramp wave voltage. Detection of current which accompanied with the stimulation of voltage was carried out by a patch-clamp voltage-clamp method using HTS automated patch clamp system (SynchroPatch 768PE, Nanion Technologies GmbH, Germany). Only cells with more than 500 pA of voltage-dependent sodium channel current were used for the evaluation of the activity of compounds on Nav1.1 current because there was the possibility that currents derived from endogenous voltage-dependent sodium channels accounted for large proportion in cells with less than 500 pA of voltage-dependent sodium channel current which was induced by stimulating Ramp wave voltage.
(3) Pharmacologic Effect on Nav1.1 Current
The effect of test compounds on the amplification of Nav1.1-derived voltage-dependent sodium current was evaluated by using a cell line stably expressing human Nav1.1 and HTS automated patch clamp system. In other words, test compounds were added in an extracellular fluid containing 1% DMSO, and evaluated as a change of the peak value of Nav1.1 current and the area under the curve (AUC).
(4) Method for Pharmacological Evaluation
The Nav1.1 current amplification rates of test compounds were calculated by the following formula:
Nav1.1 current amplification rate (%)=100×[the peak value of Nav1.1 current or the area under the curve after the addition of test compounds]/[the peak value of Nav1.1 current or the area under the curve before the addition of test compounds]−100

[1] = concentration of each compound 1 μmol/L (Test Result 6)
[2] = 10 μmol/L compound (Test Result 5)
[3] = Concentration 10 μM (Test Result 7)
[4] = compound 50 μmol/L, HEK293 stably expressing human Nav1.1
[5] = Concentration 1 μM (Test Result 7)

Nav1.1 current amplification rate (%) [1]: 60%
Compound: COC1CN(Cc2cccc3c2CCN3C(=O)Cn2nc(C3=CCC(C)CC3)ccc2=O)C1 (racemic) [Example 274]

Nav1.1 current amplification rate (%) [1]: 51%
Compound: CC1CC=C(c2ccc(=O)n(CC(=O)N3CCc4cc(-c5cccnc5)ccc43)n2)CC1 (racemic) [Example 298]

Nav1.1 current amplification rate (%) [1]: 91%
Compound: CC1CC=C(c2ccc(=O)n(CC(=O)N3CCc4c3ccnc4C3=CCOC3)n2)CC1 (racemic) [Example 284]

Nav1.1 current amplification rate (%) [1]: 10%
Compound: CC1CC=C(c2ccc(=O)n(CC(=O)N3CCc4cc(OCC(C)(C)O)ccc43)n2)CC1 (racemic) [Example 320]

Nav1.1 current amplification rate (%) [1]: 46%
Compound: COCCN(C)Cc1cccc2c1CCN2C(=O)Cn1nc(C2=CCC(C)CC2)ccc1=O (racemic) [Example 275]

activation at 1 µM [5]: 70%
Compound: CC1CC=C(c2ccc(=O)n(CC(=O)Nc3ccc(C#N)cc3F)n2)CC1 (stereo not shown) [Example 547]

Nav1.1 current amplification rate (%) [1]: 77%
Compound: COC1CCN(Cc2cccc3c2CCN3C(=O)Cn2nc(C3=CCC(C)CC3)ccc2=O)C1 (mixture of isomers) [Example 273]

Nav1.1 current amplification rate (%) [1]: 68%
Compound: CC1CC=C(c2ccc(=O)n(CC(=O)Nc3ccc4c(cnn4C)c3)n2)CC1 (racemic) [Example 336]

Nav1.1 current amplification rate (%) [2]: 37%
Compound: CC1CC=C(c2ccc(=O)n(CC(=O)N3CC=C(c4ccccc4)C3)n2)CC1 (racemic) [Example 388]

Nav1.1 current amplification rate (%) [2]: 53%
Compound: CC1CC=C(c2ccc(=O)n(CC(=O)N3CCC(Cc4ccccc4)C3)n2)CC1 (racemic) [Example 389]

Nav1.1 current amplification rate (%) [4]: 55%
Compound: CC1CC=C(c2ccc(=O)n(CC(=O)N3CCc4c(C=C5CCNCC5)cccc43)n2)CC1 (racemic) [Example 293]

Nav1.1 current amplification rate (%) [1]: 151%
Compound: CC1CC=C(c2ccc(=O)n(CC(=O)N3CCc4c3ccnc4-c3cccnc3)n2)CC1 (racemic) [Example 297]

Nav1.1 current amplification rate (%) [1]: 71%
Compound: COC1CCN(c2nccc3c2CCN3C(=O)Cn2nc(C3=CCC(C)CC3)ccc2=O)CC1 (racemic) [Example 309]

Nav1.1 current amplification rate (%) [1]: 46%
Compound: CC1CC=C(c2ccc(=O)n(CC(=O)N3CCc4c(-c5cc[nH]n5)ccc(F)c43)n2)CC1 (racemic) [Example 292]

Nav1.1 current amplification rate (%) [1]: 66%
Compound: CC1CC=C(c2ccc(=O)n(CC(=O)N3CC=C(c4ccncc4)CC3)n2)CC1 (stereo not shown) [Example 419]

Nav1.1 current amplification rate (%) [1]: 87%
Compound: CC(=O)N1CC=C(c2nccc3c2CCN3C(=O)Cn2nc(C3=CCC(C)CC3)ccc2=O)C1 (racemic) [Example 310]

Nav1.1 current amplification rate (%) [2]: 167%
Compound: CC1CC=C(c2ccc(=O)n(CC(=O)N3CCc4c(C5CN(C(C)C)C5)cccc43)n2)CC1 (racemic) [Example 304]

Further lines, the molecule ahead of its results:

Compound: COc1cc(=O)n(CC(=O)Nc2ccn3ncnc3c2)nc1C1=CCC(C)(C)CC1 [Example 499]
activation at 1 µM [1]: 50%

Compound: CC1(C)C=C(c2ccc(=O)n(CC(=O)Nc3ccc(C#N)cc3)n2)CCO1 [Example 507]
activation at 10 µM [2]: 10%

Compound: CC1CC=C(c2ccc(=O)n(CC(=O)N3CCCN(c4cccnc4)CC3)n2)CC1 (racemic) [Example 384]
Nav1.1 current amplification rate (%) [1]: 15%

Compound: Cc1cc(=O)n(CC(=O)Nc2ccc3ncnn3c2)nc1C1=CCC(C)CC1 (stereo not shown) [Example 501]
activation at 1 µM [1]: 33%

Compound: CCCCN(C)c1ccc(=O)n(CC(=O)Nc2ccc(C#N)cc2)n1 [Example 30]
Nav1.1 current amplification rate (%) [2]: 77%

Compound: N#Cc1ccc(NC(=O)Cn2nc(N3CCC4(CCCC4)C3)ccc2=O)cc1 [Example 24]
Nav1.1 current amplification rate (%) [2]: 286%

Compound: O=C(Cn1nc(N2CCC3(CCC3)C2)ccc1=O)Nc1ccc2cncnc2c1 [Example 236, 2-[3-(6-azaspiro[3.4]octan-6-yl)-6-oxopyridazin-1(6H)-yl]-N-(quinazolin-7-yl)acetamide]
activation at 1 µM [1]: 214%

Compound: CC1CC=C(c2ccc(=O)n(CC(=O)Nc3ccc4cncn4c3)n2)CC1 (racemic) [Example 344]
Nav1.1 current amplification rate (%) [1]: 69%

Compound: O=C(Cn1nc(N2CCC3(CCC3)CC2)ccc1=O)Nc1ccn2ncnc2c1 [Example 231]
activation at 1 µM [1]: 50%

Compound: COc1cc(C)cc(F)c1-c1ccc(=O)n(CC(=O)Nc2ccn3ncnc3c2)n1 [Example 571]
activation at 10 µM [3]: 24%

Compound: O=C(Cn1nc(C2=CCCC2)ccc1=O)Nc1ccn2ccnc2c1 [Example 457]
Nav1.1 current amplification rate (%) [4]: 29%

Compound: N#Cc1ccc(NC(=O)Cn2nc(N3CCC4(CCC4)CC3)ccc2=O)cc1 [Example 26]
Nav1.1 current amplification rate (%) [2]: 364%

Compound: CC1CC=C(c2ccc(=O)n(CC(=O)N3CC=C(c4cccnc4)C3)n2)CC1 (racemic) [Example 386]
Nav1.1 current amplification rate (%) [4]: 126%

Compound: CC1(C)CCCN(c2ccc(=O)n(CC(=O)Nc3ccc(C#N)cc3)n2)C1 [Example 22]
Nav1.1 current amplification rate (%) [2]: 110%

Compound: CC1CC=C(c2ccc(=O)n(CC(=O)N3CCN(C4CCCOC4)CC3)n2)CC1 (stereo not shown) [Example 408]
Nav1.1 current amplification rate (%) [4]: 80%

Compound: CC1CCN(c2ccc(=O)n(CC(=O)Nc3ccc4c(c3)NCC4)n2)CC1 [Example 233]
activation at 50 µM [4]: 47%

Compound: COc1cccc2c1CCN2C(=O)Cn1nc(N2CCC(C)(C)CC2)ccc1=O [Example 186]
activation at 10 µM [2]: 51%

Compound: CC1CC=C(c2ccc(=O)n(CC(=O)N3CCN(Cc4cccnc4)CC3)n2)CC1 (racemic) [Example 393]
Nav1.1 current amplification rate (%) [2]: 19%

Compound: CC1CCN(c2ccc(=O)n(CC(=O)Nc3ccc(C#N)cc3)n2)C1 (stereo not shown) [Example 19]
Nav1.1 current amplification rate (%) [2]: 98%

Compound: N#Cc1ccc(NC(=O)Cn2nc(C3=CCC(F)(F)CC3)ccc2=O)cc1 [Example 37, N-(4-Cyanophenyl)-2-[3-(4,4-difluorocyclohex-1-en-1-yl)-6-oxopyridazin-1(6H)-yl]acetamide]
activation at 10 µM [2]: 93%

Compound: CC1(C)CCN(c2ccc(=O)n(CC(=O)Nc3ccc(C#N)cc3)n2)C1 [Example 21]
Nav1.1 current amplification rate (%) [2]: 130%

Compound: CN(c1ccc(=O)n(CC(=O)Nc2ccn3ncnc3c2)n1)C1CC1 [Example 558]
activation at 10 µM [3]: 11%

Compound: CC1CC=C(c2ccc(=O)n(CC(=O)Nc3ccc4ncccc4c3)n2)CC1 (stereo not shown) [Example 546]
activation at 1 µM [5]: 59%

Compound: CC1CC=C(c2ccc(=O)n(CC(=O)Nc3cnc4nccn4c3)n2)CC1 (racemic) [Example 337]
Nav1.1 current amplification rate (%) [1]: 52%

Compound: N#Cc1ccc(NC(=O)Cn2nc(N3CCCC3)ccc2=O)cc1 [Example 4]
Nav1.1 current amplification rate (%) [2]: 3%

Compound: N#Cc1ccc(NC(=O)Cn2nc(N3CCCCCC3)ccc2=O)cc1 [Example 11]
Nav1.1 current amplification rate (%) [2]: 205%

Compound: Cc1cc(=O)n(CC(=O)Nc2ccn3cnnc3c2)nc1C1=CCC(C)(C)CC1 [Example 505]
activation at 50 µM [4]: 255%

Compound: CC1CC=C(c2ccc(=O)n(CC(=O)Nc3cncc(C4=CCN(C)C4)c3)n2)CC1 (racemic) [Example 367]
Nav1.1 current amplification rate (%) [1]: 38%

Compound: CN(CC1(C)CC1)c1ccc(=O)n(CC(=O)Nc2ccc3cnccc3c2)n1 [Example 567]
activation at 50 µM (Concentration 50 μM (Test Result 7)): 281%

Compound: CC1CC=C(c2ccc(=O)n(CC(=O)Nc3ccc4ncccc4c3)n2)CC1 (racemic) [Example 357]
Nav1.1 current amplification rate (%) [4]: 43%

Compound: CCC1(C)CCN(c2ccc(=O)n(CC(=O)Nc3ccc(C#N)cc3)n2)CC1 [Example 28]
Nav1.1 current amplification rate (%) [2]: 158%

Compound: CC1CCCN(c2ccc(=O)n(CC(=O)Nc3ccc(C#N)cc3)n2)C1 (stereo not shown) [Example 13]
Nav1.1 current amplification rate (%) [2]: 76%

Compound: N#Cc1ccc(NC(=O)Cn2nc(N3CCC4(CCCO4)CC3)ccc2=O)cc1 [Example 29]
Nav1.1 current amplification rate (%) [2]: 20%

Compound: O=C(Cn1nc(-c2cc(Cl)cs2)ccc1=O)Nc1ccn2ncnc2c1 [Example 497]
activation at 1 µM [1]: 43%

Compound: CC1CCN(c2ccc(=O)n(CC(=O)Nc3ccn4ncnc4c3)n2)CC1 [Example 229]
activation at 1 µM [1]: 34%

Compound: CC1CC=C(c2ccc(=O)n(CC(=O)Nc3cncc(-c4cnn(C)c4)c3)n2)CC1 (racemic) [Example 378]
Nav1.1 current amplification rate (%) [1]: 37%

Compound: CN(c1ccc(=O)n(CC(=O)N2CCc3c(-c4ccnnc4)cccc32)n1)C1CCCC1 [Example 562]
activation at 1 µM [5]: 247%

Compound: CN(c1ccc(=O)n(CC(=O)N2CCc3c(N4CCOCC4)cccc32)n1)C1CC2(CC2)C1 [Example 570]
activation at 1 µM [5]: 99%

Compound: CC1CC=C(c2ccc(=O)n(CC(=O)Nc3ccc4cnccc4c3)n2)CC1 (stereo not shown) [Example 545]
activation at 1 µM [5]: 223%

Compound: CC1CC=C(c2ccc(=O)n(CC(=O)Nc3ccc4c(O)ncnc4c3)n2)CC1 (stereo not shown) [Example 550]
activation at 1 µM [5]: 31%

Compound: CC1CC=C(c2ccc(=O)n(CC(=O)Nc3cccc(N4CCOCC4)c3)n2)CC1 (stereo not shown) [Example 549]
activation at 1 µM [5]: 33%
